Results on 21 compounds are retold here after PubChem BioAssay AID504342 (Broad Institute, 2011).

Calls of active or inactive are those of the source.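 How the source made its calls: active means fitted curve reaches 10% of the positive control caspase activation at or below the top valid tested dose; inactive means signal shifts the opposite way, plus the rest.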

Test system in one assay: not listed separately
As to the kind of experiment: caspase activation in Flag-A1-IRES-BIM MEFs, dose response, orthogonal assay for A1 inhibitor project, cell-based, MEF, plate reader, dry powder, set 2 (AID 504342). The settings on record: MEF Flag-A1-IRES-BIM, caspase-Glo luminescence, 3 h; at 35 µM (top of the series).
Consider `CCOCCCNc1c([N+](=O)[O-])c(=O)n(C)c2ccccc12`, for which the caspase activation is 1.28% (inactive).

For `C/C1=C/C(=O)O[C@@H]2C[C@@H](CC[C@H](C)/C=C\CC1)O[C@@](O)(C1CSC(=O)N1)C2` (stereo partly specified), the caspase activation is 2.78% (inactive).

Take `Cc1ccc(Sc2c([N+](=O)[O-])c(=O)oc3ccccc23)cc1`: the caspase activation is -2.87% (inactive).

On to `Cc1ccc(Sc2cc(=O)n(C)c3ccccc23)cc1`, for which the caspase activation was -6.4% (inactive).

With `O=C(Oc1cccc(/C=N/Nc2nc(Nc3ccccc3)nc(N3CCOCC3)n2)c1)c1ccco1`, the caspase activation is 2.95% (inactive).

For `CCSc1c([N+](=O)[O-])c(=O)oc2ccccc12`, the caspase activation was -1.44% (inactive).

As to `Cc1ccc(Nc2c([N+](=O)[O-])c(=O)oc3ccccc23)cc1`, the caspase activation was 0.875% (inactive).

As to `CCOC(=O)N1CCN(c2c([N+](=O)[O-])c(=O)n(C)c3ccccc23)CC1`, the caspase activation was -0.543% (inactive).

For `O=c1oc2ccccc2c(Cl)c1[N+](=O)[O-]`, the caspase activation was -5.93% (inactive).

Turning to `O=c1oc2ccccc2c(Sc2ccccc2)c1[N+](=O)[O-]`, the caspase activation was -6.2% (inactive).

For the compound `CN1C(=O)C(C)(C)N(Cc2ccccc2)c2ccccc21`, the caspase activation was 1.13% (inactive).

As to `O=[N+]([O-])c1cnc2ccccc2c1Sc1ccccc1`, the caspase activation was -1.68% (inactive).

Regarding `O=c1oc2ccccc2c(N2CCCCC2)c1[N+](=O)[O-]`, the caspase activation is -2.6% (inactive).

With `Cn1c(=O)c([N+](=O)[O-])c(Nc2ccc(Cl)cc2)c2ccccc21`, the caspase activation was -0.882% (inactive).

On to `O=c1oc2ccccc2c(Nc2cc(Cl)cc(Cl)c2)c1[N+](=O)[O-]`, for which the caspase activation is -0.897% (inactive).

Turning to `Cc1ccc(Nc2c([N+](=O)[O-])c(=O)n(C)c3ccccc23)cc1`, the caspase activation is -0.435% (inactive).

For another assay, the system named is MEF Flag-A1-IRES-BIM, caspase-Glo luminescence, 3 h. The assay is described as above.
Details: not given
As for `Cc1ccc(Sc2c([N+](=O)[O-])c(=O)n(C)c3ccccc23)cc1`, the AC10 was 5.09 µM.

`Cn1c(=O)c([N+](=O)[O-])c(Cl)c2ccccc21`: the AC10 was 1.11 µM.

Take `Cn1c(=O)c([N+](=O)[O-])c(Oc2ccccc2)c2ccccc21`: the AC10 was > 35 µM (inactive).

On to `Cc1ccc(Sc2c([N+](=O)[O-])cnc3ccccc23)cc1`, for which the AC10 is > 16 µM (inactive).

Turning to `Cn1c(=O)c([N+](=O)[O-])c(-n2cnc3ccccc32)c2ccccc21`, the AC10 was 15.1 µM.
